According to PMC4393935, “A Pharmacokinetic Study of Antimalarial 3,5-Diaryl-2-aminopyridine Derivatives” (Malaria Research and Treatment, 2015):
Read-outs that look alike come from different tables or passages of the source.

How the values were obtained:
[1] = tested on: human Ether-à-go-go-Related Gene (hERG); parameters: method as in PMID 23189922; settings: result in words; cited from earlier work
[2] = Pharmacokinetic study in C57BL/6 mice after oral and intravenous dosing, blood levels by LC-MS/MS; assay type: in vivo; settings: for T 1/2 (apparent terminal half-life) / Cmax / half-life / AUC(0-inf) / clearance / Vd: mean ± SD of five mice; for Cmax: read-out: C Max (maximum blood concentration); for half-life: read-out: T 1/2 (apparent terminal half-life); for bioavailability: read-out: BA (oral bioavailability); for AUC(0-inf) / clearance / Vd: mouse; for AUC(0-inf): read-out: AUC0–∞ (total exposure) (converted); for clearance: read-out: CL (blood clearance); for Vd: read-out: Vss (volume of distribution)
Protocol: Male and female C57BL/6 mice (20–30 g) were obtained from the University of Cape Town Medical School Animal Unit. The mice were housed in ventilated cages at room temperature (approximately 22°C) with a constant supply of food and water and were monitored twice daily. The study was authorized by the University of Cape Town's Faculty of Health Science Animal Research Ethics Committee before its commencement (Reference number 012/020). All the work was performed according to the guidelines established by Austin and colleagues.
The compounds (Figure 1) were dissolved in DMSO and diluted further with phosphate buffered saline (PBS) to give a final DMSO concentration of 1%.
Comprehensive PK studies were performed on groups of five animals to determine the pharmacokinetic properties of the test compounds. This involved the oral dosing (200 μL) of 10-week-old C57BL/6 male mice at 20 mg/kg and intravenous dosing (100 μL) under anesthesia at 4 mg/kg via the dorsal penile vein. For the oral dosage a gavage needle was used for the administration of test compounds directly into the lower esophagus or stomach. Blood samples (approximately 30 μL) were collected serially by needle prick on the tail vein near to the tip of the tail at 0, 0.17, 0.5, 1, 2, 3, 5, 7, and 9 hours after dosing. Lithium-heparin-coated tubes were used to collect the blood samples. The collected blood samples were placed on ice immediately after sampling and were frozen at −80°C until analyzed.
The blood samples were brought to room temperature and then mixed by vortexing to ensure homogeneity. Twenty microliters of blood was mixed with 50 μL Milli-Q water and 150 μL acetonitrile. The sample was vortexed for 15 seconds, sonicated for 10 minutes, and centrifuged at 13000 ×g for 5 minutes. The supernatant was transferred to a flat-bottom glass insert and placed in a glass vial for analysis.
The liquid chromatography (LC) system employed was an ultrafast liquid chromatography (UFLC) system (Shimadzu) and the separation of the compounds was performed on a Phenomenex, Luna 5 μm PFP(2), 100 Å, and 50 mm × 2 mm analytical column. For method development, the compounds were prepared at 1 mg/mL stock in methanol and were further diluted with 50% acetonitrile: 0.1% formic acid to make a final concentration of 1 μg/mL. Analyst software version 1.5.2 (AB Sciex) was employed for data acquisition, peak-area integration, and quantitation of compounds in blood samples.
The mobile phase A consisted of 0.1% formic acid in water (v/v) and mobile phase B consisted of acetonitrile. Samples were maintained at 4°C until injection. The flow rate was set at 500 μL/min and the temperature of the column was maintained at 40°C. For the separation of the compounds the mobile phase was increased from 5% to 95% B over 2 minutes and returned to 5% B within 0.1 minutes and then equilibrated for 3 minutes. Calibration curves were derived in each analytical run in duplicate and were employed to extrapolate the concentration of the compounds in the blood samples.
The MS system consisted of an AB Sciex 3200 Q-Trap mass spectrometer which was operated at unit resolution in the multiple reaction monitoring (MRM) mode. The calibration range for all the compounds was between 7.8 and 1000 ng/mL and the accuracy (%Nom) for the calibration curves was between 90.31 and 104.0%.
Noncompartmental analysis was performed on each individual set of data using PK Solutions 2.0 Pharmacokinetic Analysis Software (Summit Research Services, Montrose, USA), which uses an automated Excel-based program. […]

[3] = parameters: method as in PMID 23189922; settings: result in words; cited from earlier work
P. berghei = tested on: P. berghei; parameters: method as in PMID 23189922; settings: result in words; cited from earlier work
[4] = male Sprague Dawley rats, cited from earlier work
[5] = male, C57BL/6, mouse, whole blood, iv, 4 mg/kg, IV, 4 mg/kg, blood
[6] = male, C57BL/6, mouse, whole blood, oral, oral 20 mg/kg vs IV 4 mg/kg
[7] = male, C57BL/6, mouse, whole blood, po, 20 mg/kg, oral, 20 mg/kg, blood
[8] = male, C57BL/6, mouse, whole blood, po, 20 mg/kg, oral, 20 mg/kg, blood, read-out: T Max
[9] = male, whole blood, IV, 4 mg/kg, blood
[10] = male, whole blood, oral, 20 mg/kg, blood
[11] = oral, 20 mg/kg, blood, 20 mg/kg

SMILES	hERG activity compared to the parent compound 3 [1]	T 1/2 (apparent terminal half-life) ([2]; IV, 4 mg/kg, blood)	Cmax [2, 5]	half-life [2, 5]	bioavailability [2, 6]	Cmax [2, 7]	half-life [2, 7]	Tmax [2, 8]	AUC(0-inf) [2, 9]	clearance ([2]; male, whole blood, IV, 4 mg/kg)	Vd ([2]; male, whole blood, IV, 4 mg/kg)	AUC(0-inf) [2, 10]	T 1/2 (apparent terminal half-life) ([2]; oral, 20 mg/kg, blood)	Cmax [2, 11]	metabolic stability [3]	activity in a P. berghei infected mouse model (P. berghei)	further results
Nc1ncc(-c2ccc(C(=O)N3CCOCC3)cc2)cc1-c1ccc(C(F)(F)F)cc1 [Compound 1]	reduced hERG activity	0.87 ± 0.03 h	2110 ± 60 nM	0.68 to 0.87 h	69 ± 19%	1900 nM	2.5 to 3 h	≤ 1 h	1.72 µM·h	83.6 ± 12 mL/min/kg	9.51 ± 1 L/kg	5.99 µM·h	2.53 ± 0.1 h	1920 ± 30 nM	showed metabolic stability	displayed activity	T Max ([2]; oral, 20 mg/kg, blood): 1 h
CNS(=O)(=O)c1ccc(-c2cnc(N)c(-c3ccc(C(F)(F)F)nc3)c2)cc1 [Compound 2]	reduced hERG activity	0.68 ± 0.6 h	960 ± 60 nM	0.68 to 0.87 h	59.7%	3300 nM	2.5 to 3 h	≤ 1 h	1.75 µM·h	92.6 ± 19 mL/min/kg	27 ± 1.3 L/kg	5.23 µM·h	2.96 ± 0.2 h	3340 nM	showed metabolic stability	displayed activity	Tmax ([2]; male, C57BL/6, mouse, whole blood, po, 20 mg/kg, oral, 20 mg/kg, blood, read-out: time to maximum concentration): ≤ 0.5 h; BA (oral bioavailability) ([2]; oral 20 mg/kg vs IV 4 mg/kg): 60 ± 5%
COc1ccc(-c2cc(-c3ccc(S(C)(=O)=O)cc3)cnc2N)cn1 [Compound 3]																	apparent t 1/2 ([4]; dosed intravenously): 8 h; apparent t 1/2 ([4]; dosed orally): 6.5 h; AUC ([4]; intravenous): 789 µM·min; AUC ([4]; oral): 6880 µM·min; clearance rate [4]: 18.3 mL/min/kg; oral bioavailability [4]: > 100%
